Experimental data reported in patent publication US20180196033A1, “CELL TRACKING REAGENTS AND THEIR METHODS OF USE” (LIFE TECHNOLOGIES CORPORATION, priority 2015, published 2018).
Values joined by “and” are separate entries in the source; they are usually repeats but may differ in a detail not shown here. Equal entries are not always repeated.

Tested on: Human peripheral blood mononuclear cells (PBMCs)
Assay: Generational tracking of cell proliferation by dye dilution, flow cytometry
Assay type: cell-based
Conditions: PBMCs stained with 10 mM stock at 1 μL per mL of cells, 20 min; stimulated with Interleukin-2 and CD3/CD28 DYNABEADS; 355 nm laser, 450/50 bandpass emission filter
Method: 20 mL whole blood were added to 20 mL DPBS and mixed well. 15 mL FICOLL-PAQUE® PLUS (GE Healthcare) were added to each of two 50 mL centrifuge tubes. 20 mL of the diluted whole blood was carefully layered on top. The tube containing the whole blood was centrifuged for 30 min at 400×g and the peripheral blood mononuclear cell (PBMC) layer was carefully removed. The cells were resuspended in 25 mL DPBS in a 50 mL centrifuge tube and centrifuged for 5 min at 400×g. The supernatant was decanted and the cells were resuspended in 10 mL DPBS. Cells were counted on a COUNTESS Automated Cell Counter (Thermo Fisher Scientific) with the concentration adjusted to 1×10^6 cells/mL in DPBS.
20 μL anhydrous DMSO was added to a vial of dry Compound 1 (64 μg) at room temperature. 1 mL of unstained cells was reserved as a control. Cells were labeled with 1 μL of 10 mM Compound 1, per milliliter of cell suspension. The tubes were immediately vortexed for 30 sec and the cells were incubated for 20 min at room temperature, protected from light. […]
2 mL of each sample were removed by first mixing sample with a pipet then transferring them to their own tubes. […] Cells were counted on a COUNTESS Automated Cell Counter with the concentration adjusted to 1×10^6 cells/mL in DPBS. […]

With `COc1ccc2cc(C(=O)ON3C(=O)CCC3=O)c(=O)oc2c1` [Compound 1] the “time over which cell proliferation was followed (discrete peaks of successive generations of live, CD4 positive cells)” value was 7 days and 6 days.
